According to patent US10189796B2, “[4-(1,3,3-trimethyl-2-oxo-3,4-dihydro-1H-quinoxalin-7-yl)phenoxy]ethyloxy compound or salt thereof” (SANTEN PHARMACEUTICAL CO., LTD., priority 2015, dated 2019):

How the values were obtained:
[1] = tested on: VEGF-induced retinal elevated vascular permeability model of rabbits; test: Retinal vascular permeability model evaluation test; type: in vivo, rabbit; details: 2% 50 μL/base agent A, intravitreal once
Protocol: In order to evaluate the inhibitory effect of the present compounds on VEGF-induced retinal vascular permeability, the inhibitory effect of the present compound on retinal vascular permeability in a VEGF-induced retinal elevated vascular permeability model of rabbits was evaluated. Incidentally, this effect was evaluated by calculating a leaked amount of the fluorescent dye of the base agent administered group (non-induced group), a leaked amount of the fluorescent dye of the base agent administered group (control group) and a leaked amount of the fluorescent dye of the test compound administered group.
To the test compound was added 0.01% Polysorbate 80/0.5% sodium carboxymethyl cellulose/PBS (hereinafter referred to as “base agent A”.), whereby 2% (W/V) or 8% (W/V) of the test compound suspension was prepared. Or else, to the test compound was added PEG400 (hereinafter referred to as “base agent B”.), whereby 6% (W/W) of the test compound solution was prepared.
VEGF solution: humanVEGF165 was dissolved in PBS to prepare 50 μg/mL of VEGF solution.
• 1) A mixed solution (1 mL/kg) of 5% ketamine hydrochloride injection solution and 2% xylazine hydrochloride injection solution with the ratio of 7:1 was intramuscularly administered to rabbits (Dutch male rabbits), and the rabbits were anesthetized. • 2) Tropicamide-phenylephrine hydrochloride ophthalmic solution (trade name: Midlin P) was eye dropped to maintain pupillary mydriasis, and then, the VEGF solution was intravitreally administered. Incidentally, PBS was intravitreally administered to the base agent administration group (non-induced group). • 3) Fluorescein was intravenously administered 2 days after intravitreal administration of VEGF. Two hours after the intravenous administration of fluorescein, an amount of the leaked fluorescent dye in the vitreous body was measured by using a fluorophotometer. (Test Method) • 1) One week before or 4 weeks before VEGF-induction, 50 μL of the test compound suspension (prepared by the base agent A) was intravitreally administered once, or 5 μL of the test compound solution (prepared by the base agent B) was intravitreally administered once. Incidentally, in the base agent administered group (non-induced group) and the base agent administered group (control group), the base agent A was used in place of the test compound suspension, or the base agent B was used in place of the test compound solution. • 2) Inhibition ratio of elevated retinal vascular permeability was calculated according to the following calculation formula. (Calculation Formula) Inhibitory ratio (%) on elevated retinal vascular permeability of the test compound administered group=100×{1−(average value of a leaked fluorescent dye amount in the test compound administered group−average value of a leaked fluorescent dye amount in the base agent administered group (non-induced group))/(average value of a leaked fluorescent dye amount in the base agent administered group (control group)−average value of a leaked fluorescent dye amount of the base agent administered group (non-induced group))}

[2] = tested on: MCP-1 production in human monocyte cell (THP-1); test: MCP-1 production inhibitory action evaluation test (LPS stimulation, ELISA); type: cell-based; details: THP-1, LPS, 18 hours
Protocol: In order to evaluate an action of the present compound as a GR agonist, an MCP-1 production inhibitory action in human monocyte cell after stimulation by LPS was investigated. For the measurement of the MCP-1 production amount in the sample, the ELISA method (manufactured by R&D Systems, Cat No. DCP00) was used, and a procedure was carried out according to the protocol attached thereto. Hereinafter, the specific method will be described.
LPS solution: After LPS was dissolved in PBS(−), the solution was diluted with 10% FBS-containing RPMI 1640 to prepare an LPS solution with a 40 μg/mL concentration.
After the test compound was dissolved in dimethylsulfoxide, the solution was diluted with an RPMI medium to prepare 400 μM of a test compound solution. The solution was diluted with a 4% dimethylsulfoxide-containing RPMI 1640 medium to prepare 40 μM of a test compound solution.
Used cells: human monocyte cell (THP-1) (ATCC)
• 1) Subcultured THP-1 was recovered and centrifuged at 1,100 rpm for 5 minutes to give a cell sediment. • 2) An RPMI medium (RPMI 1640 containing 10% FBS, 100 U/mL of penicillin, 100 μg/mL of streptomycin, 55 μM of 2-Mercaptoethanol, 10 ng/mL of human EGF, and 40 μg/mL of gentamicin) was added. • 3) The above suspension was seeded in a culture flask and cultured in a CO2 incubator (temperature: 37° C., CO2 concentration: 5%). The cells continued to subculture according to this method were used for the test. (Test Method and Measurement Method) • 1) The subcultured THP-1 was recovered and the cells were each seeded at 1.9×10^5 cells/0.19 mL/well in a 96-well round bottom culture plate. • 2) The test compound solution was added with each 5 μL/well and cultured for 2 hours. • 3) LPS solution was added with each 5 μL/well. • 4) The sample to which 4% dimethylsulfoxide-containing RPMI medium was added with each 5 μL/well in place of each test compound solution, and 10% FBS-RPMI 1640 was added with each 5 μL/well in place of the LPS solution was made a negative control. • 5) The sample to 4% dimethylsulfoxide-containing RPMI medium was added with each 5 μL/well in place of each test compound solution was made a positive control. • 6) After completion of 18 hours cultivation, the supernatant was recovered and the amount of MCP-1 released in the supernatant was measured by using an ELISA Kit. • 7) The MCP-1 production inhibitory ratio was calculated according to the following calculation formula. (Calculation of MCP-1 Production Inhibitory Ratio)
MCP-1 production inhibitory ratio (%) was calculated by the following formula. […]

COc1cc(OC[C@@H](O)CC#N)ccc1-c1ccc2c(c1COc1cc(F)ccc1C)N(C)C(=O)C(C)(C)N2 [Compound 5-2, (S)-7-[4-(3-cyano-2-hydroxypropyl)oxy-2-methoxyphenyl]-8-(5-fluoro-2-methyl-phenoxymethyl)-1,3,3-trimethyl-3,4-dihydro-1H-quinoxalin-2-one]
Inhibitory ratio (%) on elevated vascular permeability ([1]; 1 week before VEGF induction): 96% | Inhibitory ratio (%) on elevated vascular permeability ([1]; 4 weeks before VEGF induction): 91%

COc1cc(OC[C@H](C)OC(=O)CN(C)C)ccc1-c1ccc2c(c1COc1cc(F)ccc1C)N(C)C(=O)C(C)(C)N2 [Compound 11-1, (S)-7-[4-[2-(N,N-dimethylaminoacetoxy)propyl]oxy-2-methoxyphenyl]-8-(5-fluoro-2-methylphenoxymethyl)-1,3,3-trimethyl-3,4-dihydro-1H-quinoxalin-2-one]
MCP-1 production inhibitory ratio (% of 1 μM) [2]: 88%

COc1ccc(O)cc1-c1ccc2c(c1COc1cc(F)ccc1C)N(C)C(=O)C(C)(C)N2 [Control compound C, 8-(5-fluoro-2-methylphenoxymethyl)-7-(5-hydroxy-2-methoxyphenyl)-1,3,3-trimethyl-3,4-dihydro-1H-quinoxalin-2-one]
MCP-1 production inhibitory ratio (% of 1 μM) [2]: 65%

CCCC(=O)Oc1ccc(-c2ccc3c(c2COc2cc(F)ccc2C)N(C)C(=O)C(C)(C)N3)c(OC)c1 [Control compound D, 7-(4-butyryloxy-2-methoxyphenyl)-8-(5-fluoro-2-methylphenoxymethyl)-1,3,3-trimethyl-3,4-dihydro-1H-quinoxalin-2-one, reference compound]
Inhibitory ratio (%) on elevated vascular permeability ([1]; 4 weeks before VEGF induction): 38%

COc1ccc(-c2ccc3c(c2COc2cc(F)ccc2C)N(C)C(=O)C(C)(C)N3)c(OC)c1 [Control compound E, 7-(2,4-dimethoxyphenyl)-8-(5-fluoro-2-methyl-phenoxymethyl)-1,3,3-trimethyl-3,4-dihydro-1H-quinoxalin-2-one, reference compound]
MCP-1 production inhibitory ratio (% of 1 μM) [2]: 40% | Inhibitory ratio (%) on elevated vascular permeability ([1]; 1 week before VEGF induction): 47%

COCOc1ccc(-c2ccc3c(c2COc2cc(F)ccc2C)N(C)C(=O)C(C)(C)N3)c(OC)c1 [Control compound F, 8-(5-fluoro-2-methylphenoxymethyl)-7-(2-methoxy-4-methoxymethoxyphenyl)-1,3,3-trimethyl-3,4-dihydro-1H-quinoxalin-2-one, reference compound]
MCP-1 production inhibitory ratio (% of 1 μM) [2]: 27%
